Experimental data taken from ChEMBL document CHEMBL3046362, “Synthesis, antioxidant evaluation, and quantitative structureactivity relationship studies of chalcones” (Med Chem Res, 2011).
Active and inactive are the calls of the source. The calls are words filed in the database; no cut-off is given here.

Legend:
Format in all cases: functional
[1] = Antioxidant activity assessed as reducing power of potassium ferricyanide at 50 ug/ml after 20 min by spectrophotometry; parameters: scale not given: the % may be the effect or the level left
[2] = Antioxidant activity assessed as hydrogen peroxide radical scavenging activity at 50 ug/ml after 10 min by spectrophotometry
[3] = system: Radical scavenging activity; assay: Antioxidant activity assessed as DPPH radical scavenging activity at 50 ug/ml after 20 min
[4] = Antioxidant activity assessed as superoxide radical scavenging activity at 50 ug/ml after 10 min by NBT reduction assay
[5] = system: Radical scavenging activity; assay: Antioxidant activity assessed as DPPH radical scavenging activity at 100 to 250 ug/ml by EPR spectroscopy

| Compound | Activity [1] [%] | Activity [2] [%] | Activity [3] [%] | Activity [4] [%] | Activity [5] |
| --- | --- | --- | --- | --- | --- |
| COc1ccccc1/C=C/C(=O)c1ccc([N+](=O)[O-])cc1 | 32.8 | 61.3 | 7 | 34.5 | – |
| CSc1ccc(/C=C/C(=O)c2ccc([N+](=O)[O-])cc2)cc1 | 3.17 | 4.61 | 15.9 | 17.4 | – |
| CSc1ccc(/C=C/C(=O)c2ccccc2O)cc1 | 46.7 | 33.3 | 15.4 | 50.2 | – |
| COc1ccc(/C=C/C(=O)c2ccc(Cl)cc2Cl)cc1OC | 33.8 | 23.8 | 15.7 | 32.6 | – |
| CSc1ccc(/C=C/C(=O)c2ccc(O)cc2)cc1 | 46 | 23.8 | 28.9 | 52.6 | – |
| COc1ccccc1/C=C/C(=O)c1cccc([N+](=O)[O-])c1 | 22.4 | 24.3 | 6.93 | 5.39 | – |
| CSc1ccc(/C=C/C(=O)c2cccc(O)c2)cc1 | 51.6 | 28.7 | 21.2 | 53.3 | – |
| CSc1ccc(/C=C/C(=O)c2ccc(C)cc2)cc1 | 23.8 | 31.7 | 3.16 | 23.1 | – |
| O=C(/C=C/c1ccccc1)c1ccccc1 | 42.4 | 25.4 | 18.6 | 32.6 | – |
| COc1ccc(/C=C/C(=O)c2ccc(C)cc2)cc1 | 23.1 | 4.54 | 1.3 | 15.4 | – |
| COc1ccc(/C=C/C(=O)c2ccccc2)cc1 | 21.2 | 12.3 | 5.34 | 21.3 | – |
| CSc1ccc(/C=C/C(=O)c2ccc(Cl)cc2)cc1 | 30.9 | 43.5 | 23.2 | 41.4 | – |
| CSc1ccc(/C=C/C(=O)c2ccc(Cl)cc2Cl)cc1 | 10.1 | 17.4 | 4.07 | 30.9 | – |
| COc1ccc(/C=C/C(=O)c2cccc([N+](=O)[O-])c2)c(OC)c1 | 26.5 | 5.91 | 7.9 | 23.1 | – |
| COc1cc(/C=C/C(=O)c2ccccc2)cc(OC)c1OC | 40.6 | 22.7 | 15.6 | 28.9 | – |
| CSc1ccc(/C=C/C(=O)c2ccc(Br)cc2)cc1 | 18.8 | 49.7 | 18 | 18 | – |
| COc1ccc(/C=C/C(=O)c2cccc([N+](=O)[O-])c2)cc1OC | 43.5 | 35.9 | 15.4 | 53.4 | – |
| O=C1O[C@H]([C@@H](O)CO)C(O)=C1O | 22.6 | 78.3 | 28 | 82.9 | – |
| CN(C)c1ccc(/C=C/C(=O)c2cccc([N+](=O)[O-])c2)cc1 | 28.6 | 17.4 | 18.6 | 39 | – |
| COc1ccc(C(=O)/C=C/c2ccc(SC)cc2)cc1 | 24.3 | 29.5 | 2.64 | 17.8 | – |
| CSc1ccc(/C=C/C(=O)c2cccc([N+](=O)[O-])c2)cc1 | 27.2 | 46.4 | 15.3 | 39.7 | – |
| CN(C)c1ccc(/C=C/C(=O)c2ccc(Cl)cc2Cl)cc1 | 22 | 32.6 | 12.9 | 10.9 | – |
| CN(C)c1ccc(/C=C/C(=O)c2ccccc2)cc1 | 9.52 | 12.1 | 8.08 | 13.8 | – |
| COc1ccccc1/C=C/C(=O)c1ccccc1 | 21.8 | 4.54 | 0.98 | 18.6 | – |
| COc1ccc(/C=C/C(=O)c2cccc(O)c2)cc1 | 37.5 | 42.8 | 35.7 | 62 | Active |
| CSc1ccc(/C=C/C(=O)c2ccccc2)cc1 | 19.8 | 4.26 | 10.2 | 27.4 | – |
| Cc1cc(C(C)(C)C)c(O)c(C(C)(C)C)c1 | 56.1 | 42.6 | 26.4 | 79.1 | – |
